# Measured values from patent US12590099B2, “Inhibitors of histone deacetylase useful for the treatment or prevention of HIV infection” (Merck Sharp & Dohme LLC, priority 2018, dated 2026).
# Read-outs that look alike come from different tables or passages of the source.
# Legend:
# Recombinant human HDAC2 = target: T1, Recombinant human HDAC2 (Homo sapiens, UniProt Q92769); assay: Human HDAC enzyme inhibitor Fluor-de-Lys assay, HDAC2; type: biochemical
# T1 construct: Full length human HDAC2-FLAG was expressed in baculovirus infected Sf9 cells; FLAG (C); made in house; host or cells: Sf9 (baculovirus)
# T1 sequence (Q92769 whole entry): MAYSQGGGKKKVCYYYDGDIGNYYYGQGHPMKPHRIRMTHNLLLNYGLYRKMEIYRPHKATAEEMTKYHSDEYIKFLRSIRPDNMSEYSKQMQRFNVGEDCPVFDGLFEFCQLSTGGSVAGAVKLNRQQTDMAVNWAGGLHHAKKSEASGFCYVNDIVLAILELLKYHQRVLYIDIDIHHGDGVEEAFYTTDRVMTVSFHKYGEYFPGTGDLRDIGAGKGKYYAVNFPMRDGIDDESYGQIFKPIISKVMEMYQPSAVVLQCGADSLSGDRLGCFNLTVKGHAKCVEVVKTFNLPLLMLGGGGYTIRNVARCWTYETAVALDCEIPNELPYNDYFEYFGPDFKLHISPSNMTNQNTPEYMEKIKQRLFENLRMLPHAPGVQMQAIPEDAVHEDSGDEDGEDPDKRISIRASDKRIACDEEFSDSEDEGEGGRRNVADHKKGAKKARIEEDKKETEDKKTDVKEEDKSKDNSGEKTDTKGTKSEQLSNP
# Outline: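 Fluor-de-Lys format at room temperature (23° C.): compounds titrated 10-point, 1:3, preincubated with HDAC before substrate addition. Developer with excess HDAC inhibitor ends the reaction, and trypsin-liberated AMC fluorescence is the read-out.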
# [1] = target: T2, Recombinant human HDAC3/SMRT heterodimer (Homo sapiens, UniProt O15379); assay: Human HDAC enzyme inhibitor Fluor-de-Lys assay, HDAC3/SMRT; type: biochemical
# T2 construct: FLAG (C); made in house
# T2 sequence (O15379 whole entry): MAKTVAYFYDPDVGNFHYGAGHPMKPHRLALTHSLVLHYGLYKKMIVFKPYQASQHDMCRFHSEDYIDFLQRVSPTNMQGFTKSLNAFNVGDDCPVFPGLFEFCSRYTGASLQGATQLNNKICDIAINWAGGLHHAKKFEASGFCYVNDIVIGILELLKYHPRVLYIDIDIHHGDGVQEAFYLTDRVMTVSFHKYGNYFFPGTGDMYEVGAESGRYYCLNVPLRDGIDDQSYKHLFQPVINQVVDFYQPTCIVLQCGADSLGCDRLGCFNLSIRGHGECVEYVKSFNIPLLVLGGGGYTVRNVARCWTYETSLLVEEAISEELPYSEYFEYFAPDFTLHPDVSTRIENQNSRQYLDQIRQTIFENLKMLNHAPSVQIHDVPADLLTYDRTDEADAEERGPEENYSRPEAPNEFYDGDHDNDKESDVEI
# T2 sequence (Q9Y618 1-899 partner limits assumed): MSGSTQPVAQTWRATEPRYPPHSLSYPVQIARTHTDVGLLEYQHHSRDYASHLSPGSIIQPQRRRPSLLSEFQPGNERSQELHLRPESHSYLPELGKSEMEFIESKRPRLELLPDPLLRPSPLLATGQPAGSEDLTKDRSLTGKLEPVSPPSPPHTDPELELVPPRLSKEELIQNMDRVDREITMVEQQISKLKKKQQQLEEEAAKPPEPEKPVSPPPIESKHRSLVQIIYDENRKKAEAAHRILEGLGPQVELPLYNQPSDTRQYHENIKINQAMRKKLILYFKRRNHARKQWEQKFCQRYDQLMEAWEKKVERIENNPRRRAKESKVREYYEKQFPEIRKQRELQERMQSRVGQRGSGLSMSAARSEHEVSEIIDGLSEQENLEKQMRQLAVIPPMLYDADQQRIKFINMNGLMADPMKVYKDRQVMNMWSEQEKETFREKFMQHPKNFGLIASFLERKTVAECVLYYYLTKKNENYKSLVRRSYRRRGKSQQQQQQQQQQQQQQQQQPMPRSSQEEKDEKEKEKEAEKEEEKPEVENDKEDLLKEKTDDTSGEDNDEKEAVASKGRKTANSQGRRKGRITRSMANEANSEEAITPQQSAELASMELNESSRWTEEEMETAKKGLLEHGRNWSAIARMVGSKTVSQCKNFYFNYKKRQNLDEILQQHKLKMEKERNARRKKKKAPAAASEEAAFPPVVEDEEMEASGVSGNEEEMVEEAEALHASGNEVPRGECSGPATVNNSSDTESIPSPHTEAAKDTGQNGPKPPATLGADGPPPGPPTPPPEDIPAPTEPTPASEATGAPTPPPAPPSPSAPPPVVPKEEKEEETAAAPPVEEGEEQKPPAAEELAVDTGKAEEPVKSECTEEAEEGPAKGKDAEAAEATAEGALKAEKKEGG
# Recombinant human HDAC1 = target: T3, Recombinant human HDAC1 (Homo sapiens, UniProt Q13547); assay: Human HDAC enzyme inhibitor Fluor-de-Lys assay, HDAC1; type: biochemical
# T3 construct: FLAG (C); made in house
# T3 sequence (Q13547 whole entry): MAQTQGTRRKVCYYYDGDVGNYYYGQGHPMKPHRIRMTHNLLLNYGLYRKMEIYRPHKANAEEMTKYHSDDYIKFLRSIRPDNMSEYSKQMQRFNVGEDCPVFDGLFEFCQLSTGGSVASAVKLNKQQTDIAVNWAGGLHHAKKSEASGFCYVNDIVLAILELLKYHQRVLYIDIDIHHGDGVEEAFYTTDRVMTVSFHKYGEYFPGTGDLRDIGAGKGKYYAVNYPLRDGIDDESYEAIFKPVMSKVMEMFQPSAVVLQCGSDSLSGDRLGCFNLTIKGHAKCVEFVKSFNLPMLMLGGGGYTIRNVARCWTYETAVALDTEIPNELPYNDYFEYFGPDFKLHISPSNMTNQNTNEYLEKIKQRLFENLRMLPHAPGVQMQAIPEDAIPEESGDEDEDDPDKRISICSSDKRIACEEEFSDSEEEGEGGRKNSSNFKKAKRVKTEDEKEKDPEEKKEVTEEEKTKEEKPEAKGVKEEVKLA
# Outline: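 Fluor-de-Lys format at room temperature (23° C.): compounds titrated 10-point, 1:3, preincubated with HDAC before substrate addition; HDAC1 run at 0.3 nM enzyme with 20 μM BML-KI104. Developer with excess HDAC inhibitor ends the reaction, and trypsin-liberated AMC fluorescence is the read-out.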
# KARN cells (Jurkat 2C4) = assay: cells; type: cell-based
# Outline: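 Jurkat 2C4 (KARN) cells dosed with test compounds up to 40 μM final, 0.4% DMSO, overnight at 5% CO2; luciferase read by Steady-Glo luminescence after 10 min at room temperature. DMSO set as 0% and 2 μM SAHA as 100% induction; 4-parameter fit of percent activation.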
# [2] = Homo sapiens, Jurkat, read-out: Karn EC50 (nM) 0.1% NHS, 0.1% normal human serum
# [3] = Homo sapiens, Jurkat, read-out: Karn EC50 (nM) 5% NHS, 5% normal human serum
# [4] = recombinant human HDAC2, Fluor-de-Lys assay
# [5] = recombinant human HDAC3/SMRT, Fluor-de-Lys assay
# [6] = recombinant human HDAC1, Fluor-de-Lys assay
# [7] = Homo sapiens, Jurkat, read-out: Karn EC50 (nM) 0.1% NHS, 0.1% normal human serum, luciferase induction, 100% = 2 μM SAHA
# [8] = Homo sapiens, Jurkat, read-out: Karn EC50 (nM) 5% NHS, 5% normal human serum, luciferase induction, 100% = 2 μM SAHA
Structure (SMILES),IC50 (Recombinant human HDAC2) [nM],IC50 [1] [nM],IC50 (Recombinant human HDAC1) [nM],EC50 (KARN cells (Jurkat 2C4); [2]) [nM],EC50 (KARN cells (Jurkat 2C4); [3]) [nM],IC50 (Recombinant human HDAC2; [4]) [nM],"IC50 [1, 5] [nM]",IC50 (Recombinant human HDAC1; [6]) [nM],EC50 (KARN cells (Jurkat 2C4); [7]) [nM],EC50 (KARN cells (Jurkat 2C4); [8]) [nM],"EC50 (KARN cells (Jurkat 2C4); read-out: Karn EC50 (nM) 0.1% NHS, 0.1% normal human serum, luciferase induction, 100% = 2 μM SAHA) [nM]","EC50 (KARN cells (Jurkat 2C4); read-out: Karn EC50 (nM) 5% NHS, 5% normal human serum, luciferase induction, 100% = 2 μM SAHA) [nM]"
CCC(=O)CCCCC[C@H](NC(=O)[C@H]1CC12CCN(CC)CC2)c1ncc(-c2ccc(-c3ncco3)cc2)o1 [Compound 94],34,4.01,9.13,502,549,–,–,–,–,–,–,–
CCC(=O)CCCCC[C@H](NC(=O)[C@H]1CC12CCN(CC)CC2)c1ncc(-c2ccc(-n3cccn3)cc2)o1 [Compound 95],31.5,3.95,5.26,522,747,–,–,–,–,–,–,–
CCC(=O)CCCCC[C@H](NC(=O)[C@H]1CC12CCN(C(C)C)CC2)c1ncc(-c2ccc3c(ccc(=O)n3C)c2)o1 [Compound 96],44.5,9.9,6.9,1370,1510,–,–,–,–,–,–,–
CCC(=O)CCCCC[C@H](NC(=O)[C@H]1CC12CCN(CC)CC2)c1ncc(-c2ccc3c(ccc(=O)n3C)c2)o1 [Compound 97],23,4.38,6.52,563,660,–,–,–,–,–,–,–
CCC(=O)CCCCC[C@H](NC(=O)[C@H]1CC12CCN(C(C)C)CC2)c1ncc(-c2ccc3nc(C4CC4)ccc3c2)[nH]1 [Compound 100],< 1.5,< 1.5,< 1.5,68,64,–,–,–,–,–,–,–
"CCC(=O)CCCCC[C@H](NC(=O)C1=NOC2(CCN(C)CC2)C1)c1ncc(-c2ccc(-c3cccnc3)cc2OC)o1 [Compound 222, N-{(1S)-1-[5-(2-methoxy-4-pyridin-3-ylphenyl)-1,3-oxazol-2-yl]-7-oxononyl}-8-methyl-1-oxa-2,8-diazaspiro[4.5]dec-2-ene-3-carboxamide]",–,–,–,–,–,24.5,4.67,1.61,298,364,–,–
CCC(=O)CCCCC[C@H](NC(=O)C1=NOC2(CCN(C)CC2)C1)c1ncc(-c2cc3cccnc3cc2OC)o1 [Compound 223],–,–,–,–,–,9.7,2.06,1.54,272,559,–,–
CCC(=O)CCCCC[C@H](N)c1ncc(-c2cc3ccc(=O)n(C)c3cc2OC)o1 [Compound 224],–,–,–,–,–,444,92.1,38.7,5000,6970,–,–
CCC(=O)CCCCC[C@H](NC(=O)C1=NOC2(CCN(CC3CC3)CC2)C1)c1ncc(-c2cc3ccc(C)nc3cc2OC)o1 [Compound 225],–,–,–,–,–,6.2,1.14,0.6,217,247,–,–
CCC(=O)CCCCC[C@H](NC(=O)[C@H]1CC12CCN(CC1CC1)CC2)c1ncc(-c2cc3ccc(C)nc3cc2F)[nH]1 [Compound 228],–,–,–,–,–,0.6,0.19,0.12,22,22,–,–
CCC(=O)CCCCC[C@H](NC(=O)[C@H]1CC12CCN(CC1CC1)CC2)c1ncc(-c2cc3ccn(C)c(=O)c3cc2OC)o1 [Compound 229],–,–,–,–,–,0.7,0.21,0.09,31,29,–,–
CCC(=O)CCCCC[C@H](NC(=O)C1=NOC2(CCN(C)CC2)C1)c1ncc(-c2cc3ccc(C)nc3cc2F)[nH]1 [Compound 232],–,–,–,–,–,21.4,4.47,1.33,144,248,–,–
CCC(=O)CCCCC[C@H](NC(=O)C1=NOC2(CCN(CC)CC2)C1)c1ncc(-c2cc3ccc(C)nc3cc2F)[nH]1 [Compound 233],–,–,–,–,–,25.2,8.8,3.59,166,230,–,–
CCC(=O)CCCCC[C@H](NC(=O)C1=NOC2(CCN(CC3CC3)CC2)C1)c1ncc(-c2cc3ccc(C)nc3cc2F)[nH]1 [Compound 234],–,–,–,–,–,14.1,2.99,0.56,160,262,–,–
CCC(=O)CCCCC[C@H](NC(=O)C1=NOC2(CCN(CC)CC2)C1)c1ncc(-c2cc3ccc(=O)n(C)c3cc2OC)o1 [Compound 235],–,–,–,–,–,12.4,2.19,0.7,249,411,–,–
CCC(=O)CCCCC[C@H](NC(=O)C1=NOC2(CCN(CC3CC3)CC2)C1)c1ncc(-c2cc3ccc(=O)n(C)c3cc2OC)o1 [Compound 236],–,–,–,–,–,9.9,1.07,0.36,442,476,–,–

Structure (SMILES),IC50 (Recombinant human HDAC2) [nM],IC50 [1] [nM],IC50 (Recombinant human HDAC1) [nM],EC50 (KARN cells (Jurkat 2C4); [2]) [nM],EC50 (KARN cells (Jurkat 2C4); [3]) [nM],IC50 (Recombinant human HDAC2; [4]) [nM],"IC50 [1, 5] [nM]",IC50 (Recombinant human HDAC1; [6]) [nM],EC50 (KARN cells (Jurkat 2C4); [7]) [nM],EC50 (KARN cells (Jurkat 2C4); [8]) [nM],"EC50 (KARN cells (Jurkat 2C4); read-out: Karn EC50 (nM) 0.1% NHS, 0.1% normal human serum, luciferase induction, 100% = 2 μM SAHA) [nM]","EC50 (KARN cells (Jurkat 2C4); read-out: Karn EC50 (nM) 5% NHS, 5% normal human serum, luciferase induction, 100% = 2 μM SAHA) [nM]"
"CCC(=O)CCCCC[C@H](NC(=O)C1=NOC2(CCN(C)CC2)C1)c1ncc(-c2ccc(-c3cnccn3)cc2OC)o1 [Compound 237, N-{(1S)-1-[5-(2-methoxy-4-pyrazin-2-ylphenyl)-1,3-oxazol-2-yl]-7-oxononyl}-8-methyl-1-oxa-2,8-diazaspiro[4.5]dec-2-ene-3-carboxamide]",–,–,–,–,–,27.2,6.06,2.41,235,274,–,–
CCC(=O)CCCCC[C@H](NC(=O)[C@H]1CC12CCN(CC)CC2)c1ncc(-c2ccc3nn(C4CC4)cc3c2)[nH]1 [Compound 238],–,–,–,–,–,1.9,0.27,0.22,66,45,–,–
CCCC(=O)CCCCC[C@H](NC(=O)[C@H]1CC12CCN(C)CC2)c1ncc(-c2ccc(F)cc2)[nH]1 [Compound 239],–,–,–,–,–,77.4,15.3,13.9,324,581,–,–
CCC(=O)CCCCC[C@H](NC(=O)[C@H]1CC12CCN(C)CC2)c1[nH]c(-c2ccc(F)cc2)nc1Cl [Compound 240],–,–,–,–,–,38.1,2.95,5.73,247,346,–,–
CCC(=O)CCCCC[C@H](NC(=O)C1CC12CCN(CC)CC2)c1nc(-c2ccc(F)cc2)[nH]c1-c1cnc(OC)nc1 (stereo partly drawn) [Compound 247],–,–,–,–,–,214,35.9,39,9640,10800,–,–
CCC(=O)CCCCC[C@H](NC(=O)C1CC12CCN(CC)CC2)c1nc(-c2ccc(F)cc2)[nH]c1-c1cn[nH]c1 (stereo partly drawn) [Compound 249],–,–,–,–,–,88.3,20.1,17.4,> 40000,–,–,–
CCC(=O)CCCCC[C@H](NC(=O)C1CC12CCN(CC)CC2)c1nc(-c2ccc(F)cc2)[nH]c1-c1ccn(C)c1 (stereo partly drawn) [Compound 251],–,–,–,–,–,12.6,1.82,2.73,143,216,–,–
CCC(=O)CCCCC[C@H](NC(=O)C1CC12CCN(CC)CC2)c1nc(-c2ccc(F)cc2)[nH]c1-c1cccs1 (stereo partly drawn) [Compound 252],–,–,–,–,–,185,66.1,56.6,1600,2880,–,–
CCC(=O)CCCCCC(NC(=O)C1CC12CCN(CC)CC2)c1nc(-c2ccc(F)cc2)[nH]c1-c1ccnn1C (stereo not drawn) [Compound 253],–,–,–,–,–,111,16.7,30.4,1870,2340,–,–
CCCn1cc(-c2[nH]c(-c3ccc(F)cc3)nc2C(CCCCCC(=O)CC)NC(=O)C2CC23CCN(CC)CC3)cn1 (stereo not drawn) [Compound 254],–,–,–,–,–,131,29.6,29.4,5340,6040,–,–
CCC(=O)CCCCC[C@H](NC(=O)[C@H]1CC12CCN(C)CC2)c1ncc(-c2cnc(OC)nc2)[nH]1 [Compound 255],–,–,–,–,–,491,81.9,168,13300,14800,–,–
CCC(=O)CCCCC[C@H](NC(=O)[C@H]1CC12CCN(C)CC2)c1ncc(-c2cnc3c(c2)ncn3C)[nH]1 [Compound 256],–,–,–,–,–,280,57.9,74.6,23700,> 40000,–,–
CCC(=O)CCCCC[C@H](NC(=O)[C@H]1CC12CCN(C)CC2)c1ncc(-c2ccc3c(c2)c2ccccc2n3C)[nH]1 [Compound 265],–,–,–,–,–,12.4,3.86,5.14,142,370,–,–
CCC(=O)CCCCC[C@H](NC(=O)C1=NOC2(CCN(CC)CC2)C1)c1ncc(-c2cc3ccc(C)nc3cc2F)o1 [Compound 269],–,–,–,–,–,36.7,8.3,5.18,–,–,746,1210
CCC(=O)CCCCC[C@H](NC(=O)C1CCC2(CC1)CN(C(C)C)C2)c1ncc(-c2cc3ccccc3nc2OC)[nH]1 [Compound 272],–,–,–,–,–,8.2,< 1.5,2.08,163,721,–,–
CCC(=O)CCCCC[C@H](NC(=O)CC1CC2(C1)CN(C(C)C)C2)c1ncc(-c2cc3ccccc3nc2OC)[nH]1 [Compound 273],–,–,–,–,–,3.4,< 1.5,< 1.5,111,438,–,–
